Laboratory results from PubChem BioAssay (NCI).
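How tested: cells in 96-well plates exposed to compound for 48 hours at five concentrations. Definition used: TGI = concentration required for complete inhibition of growth.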

Tested on: OVCAR-4 ovarian
Assay: inhibition of tumour cell growth, NCI panel, 48 h

SMILES | TGI [µM]
C1CSC(Sc2nc(SC3=NCCS3)nc(SC3=NCCS3)n2)=N1 | > 100
CC(=O)NCCC1CNc2ccccc21 (configuration not stated) | > 100
Cn1c(-c2ccccc2)cc(-c2ccsc2)c1-c1ccsc1 | > 100
CN(C)CCCNC(=O)c1cc2/c(=C\c3ccc(N(C)C)cc3)c3ccccc3n2[n+]1C | 21.4
CC(C)(C)c1ccc(C(C)(C)C)c(N2C(=O)[C@@H]3[C@@H]4C=C[C@@H](C4)[C@]3(C)C2=O)c1 | 26.7

Tested on: UACC-62 melanoma
Assay: inhibition of tumour cell growth, NCI panel, 48 h

SMILES | TGI [µM]
C1CSC(Sc2nc(SC3=NCCS3)nc(SC3=NCCS3)n2)=N1 | > 100
CC(=O)NCCC1CNc2ccccc21 (configuration not stated) | > 100
Cn1c(-c2ccccc2)cc(-c2ccsc2)c1-c1ccsc1 | > 100
CN(C)CCCNC(=O)c1cc2/c(=C\c3ccc(N(C)C)cc3)c3ccccc3n2[n+]1C | 34
CC(C)(C)c1ccc(C(C)(C)C)c(N2C(=O)[C@@H]3[C@@H]4C=C[C@@H](C4)[C@]3(C)C2=O)c1 | 46.7

Tested on: K-562 leukemia
Assay: inhibition of tumour cell growth, NCI panel, 48 h

SMILES | TGI [µM]
C1CSC(Sc2nc(SC3=NCCS3)nc(SC3=NCCS3)n2)=N1 | > 100
CC(=O)NCCC1CNc2ccccc21 (configuration not stated) | > 100
Cn1c(-c2ccccc2)cc(-c2ccsc2)c1-c1ccsc1 | > 100
CN(C)CCCNC(=O)c1cc2/c(=C\c3ccc(N(C)C)cc3)c3ccccc3n2[n+]1C | 35.4
CC(C)(C)c1ccc(C(C)(C)C)c(N2C(=O)[C@@H]3[C@@H]4C=C[C@@H](C4)[C@]3(C)C2=O)c1 | > 100

Tested on: HCC-2998 colon
Assay: inhibition of tumour cell growth, NCI panel, 48 h

SMILES | TGI [µM]
C1CSC(Sc2nc(SC3=NCCS3)nc(SC3=NCCS3)n2)=N1 | > 100
CC(=O)NCCC1CNc2ccccc21 (configuration not stated) | > 100
Cn1c(-c2ccccc2)cc(-c2ccsc2)c1-c1ccsc1 | > 100
CC(C)(C)c1ccc(C(C)(C)C)c(N2C(=O)[C@@H]3[C@@H]4C=C[C@@H](C4)[C@]3(C)C2=O)c1 | 29.1

Tested on: COLO 205 colon
Assay: inhibition of tumour cell growth, NCI panel, 48 h

SMILES | TGI [µM]
C1CSC(Sc2nc(SC3=NCCS3)nc(SC3=NCCS3)n2)=N1 | > 100
CC(=O)NCCC1CNc2ccccc21 (configuration not stated) | > 100
Cn1c(-c2ccccc2)cc(-c2ccsc2)c1-c1ccsc1 | > 100
CN(C)CCCNC(=O)c1cc2/c(=C\c3ccc(N(C)C)cc3)c3ccccc3n2[n+]1C | 21.3
CC(C)(C)c1ccc(C(C)(C)C)c(N2C(=O)[C@@H]3[C@@H]4C=C[C@@H](C4)[C@]3(C)C2=O)c1 | > 100

Tested on: HOP-62 NSCLC
Assay: inhibition of tumour cell growth, NCI panel, 48 h

SMILES | TGI [µM]
C1CSC(Sc2nc(SC3=NCCS3)nc(SC3=NCCS3)n2)=N1 | > 100
Cn1c(-c2ccccc2)cc(-c2ccsc2)c1-c1ccsc1 | > 100
CN(C)CCCNC(=O)c1cc2/c(=C\c3ccc(N(C)C)cc3)c3ccccc3n2[n+]1C | > 100
CC(C)(C)c1ccc(C(C)(C)C)c(N2C(=O)[C@@H]3[C@@H]4C=C[C@@H](C4)[C@]3(C)C2=O)c1 | > 100

Tested on: PC-3 prostate
Assay: inhibition of tumour cell growth, NCI panel, 48 h

SMILES | TGI [µM]
C1CSC(Sc2nc(SC3=NCCS3)nc(SC3=NCCS3)n2)=N1 | > 100
CC(=O)NCCC1CNc2ccccc21 (configuration not stated) | > 100
Cn1c(-c2ccccc2)cc(-c2ccsc2)c1-c1ccsc1 | > 100
CN(C)CCCNC(=O)c1cc2/c(=C\c3ccc(N(C)C)cc3)c3ccccc3n2[n+]1C | > 100
CC(C)(C)c1ccc(C(C)(C)C)c(N2C(=O)[C@@H]3[C@@H]4C=C[C@@H](C4)[C@]3(C)C2=O)c1 | 72.6

Tested on: MDA-N
Assay: inhibition of tumour cell growth, NCI panel, 48 h

SMILES | TGI [µM]
C1CSC(Sc2nc(SC3=NCCS3)nc(SC3=NCCS3)n2)=N1 | > 100
CC(=O)NCCC1CNc2ccccc21 (configuration not stated) | > 100
Cn1c(-c2ccccc2)cc(-c2ccsc2)c1-c1ccsc1 | > 100
CN(C)CCCNC(=O)c1cc2/c(=C\c3ccc(N(C)C)cc3)c3ccccc3n2[n+]1C | 78.4
CC(C)(C)c1ccc(C(C)(C)C)c(N2C(=O)[C@@H]3[C@@H]4C=C[C@@H](C4)[C@]3(C)C2=O)c1 | 31.9

Tested on: SK-MEL-28 melanoma
Assay: inhibition of tumour cell growth, NCI panel, 48 h

SMILES | TGI [µM]
C1CSC(Sc2nc(SC3=NCCS3)nc(SC3=NCCS3)n2)=N1 | > 100
CC(=O)NCCC1CNc2ccccc21 (configuration not stated) | > 100
Cn1c(-c2ccccc2)cc(-c2ccsc2)c1-c1ccsc1 | > 100
CN(C)CCCNC(=O)c1cc2/c(=C\c3ccc(N(C)C)cc3)c3ccccc3n2[n+]1C | 74.8
CC(C)(C)c1ccc(C(C)(C)C)c(N2C(=O)[C@@H]3[C@@H]4C=C[C@@H](C4)[C@]3(C)C2=O)c1 | > 100

Tested on: U251 CNS
Assay: inhibition of tumour cell growth, NCI panel, 48 h

SMILES | TGI [µM]
C1CSC(Sc2nc(SC3=NCCS3)nc(SC3=NCCS3)n2)=N1 | > 100
CC(=O)NCCC1CNc2ccccc21 (configuration not stated) | > 100
Cn1c(-c2ccccc2)cc(-c2ccsc2)c1-c1ccsc1 | > 100
CN(C)CCCNC(=O)c1cc2/c(=C\c3ccc(N(C)C)cc3)c3ccccc3n2[n+]1C | 69.2
CC(C)(C)c1ccc(C(C)(C)C)c(N2C(=O)[C@@H]3[C@@H]4C=C[C@@H](C4)[C@]3(C)C2=O)c1 | 52.5

Tested on: T-47D breast
Assay: inhibition of tumour cell growth, NCI panel, 48 h

SMILES | TGI [µM]
C1CSC(Sc2nc(SC3=NCCS3)nc(SC3=NCCS3)n2)=N1 | > 100
CC(=O)NCCC1CNc2ccccc21 (configuration not stated) | > 100
Cn1c(-c2ccccc2)cc(-c2ccsc2)c1-c1ccsc1 | > 100
CN(C)CCCNC(=O)c1cc2/c(=C\c3ccc(N(C)C)cc3)c3ccccc3n2[n+]1C | 15.9
CC(C)(C)c1ccc(C(C)(C)C)c(N2C(=O)[C@@H]3[C@@H]4C=C[C@@H](C4)[C@]3(C)C2=O)c1 | 82.6

Tested on: HCT-116 colon
Assay: inhibition of tumour cell growth, NCI panel, 48 h

SMILES | TGI [µM]
C1CSC(Sc2nc(SC3=NCCS3)nc(SC3=NCCS3)n2)=N1 | > 100
CC(=O)NCCC1CNc2ccccc21 (configuration not stated) | > 100
Cn1c(-c2ccccc2)cc(-c2ccsc2)c1-c1ccsc1 | > 100
CN(C)CCCNC(=O)c1cc2/c(=C\c3ccc(N(C)C)cc3)c3ccccc3n2[n+]1C | 64.2
CC(C)(C)c1ccc(C(C)(C)C)c(N2C(=O)[C@@H]3[C@@H]4C=C[C@@H](C4)[C@]3(C)C2=O)c1 | 40.9

Tested on: UO-31 renal
Assay: inhibition of tumour cell growth, NCI panel, 48 h

SMILES | TGI [µM]
C1CSC(Sc2nc(SC3=NCCS3)nc(SC3=NCCS3)n2)=N1 | > 100
CC(=O)NCCC1CNc2ccccc21 (configuration not stated) | > 100
Cn1c(-c2ccccc2)cc(-c2ccsc2)c1-c1ccsc1 | > 100
CN(C)CCCNC(=O)c1cc2/c(=C\c3ccc(N(C)C)cc3)c3ccccc3n2[n+]1C | > 100
CC(C)(C)c1ccc(C(C)(C)C)c(N2C(=O)[C@@H]3[C@@H]4C=C[C@@H](C4)[C@]3(C)C2=O)c1 | > 100

Tested on: NCI-H23 lung
Assay: inhibition of tumour cell growth, NCI panel, 48 h

SMILES | TGI [µM]
C1CSC(Sc2nc(SC3=NCCS3)nc(SC3=NCCS3)n2)=N1 | > 100
CC(=O)NCCC1CNc2ccccc21 (configuration not stated) | > 100
Cn1c(-c2ccccc2)cc(-c2ccsc2)c1-c1ccsc1 | > 100
CN(C)CCCNC(=O)c1cc2/c(=C\c3ccc(N(C)C)cc3)c3ccccc3n2[n+]1C | 59.5
CC(C)(C)c1ccc(C(C)(C)C)c(N2C(=O)[C@@H]3[C@@H]4C=C[C@@H](C4)[C@]3(C)C2=O)c1 | > 100

Tested on: NCI-H226 lung
Assay: inhibition of tumour cell growth, NCI panel, 48 h

SMILES | TGI [µM]
C1CSC(Sc2nc(SC3=NCCS3)nc(SC3=NCCS3)n2)=N1 | > 100
CC(=O)NCCC1CNc2ccccc21 (configuration not stated) | > 100
Cn1c(-c2ccccc2)cc(-c2ccsc2)c1-c1ccsc1 | > 100
CC(C)(C)c1ccc(C(C)(C)C)c(N2C(=O)[C@@H]3[C@@H]4C=C[C@@H](C4)[C@]3(C)C2=O)c1 | > 100
